The values below come from patent US20250302832A1, “PYRAZINE DERIVATIVES AND USES THEREOF” (FOGHORN THERAPEUTICS INC., priority 2022, published 2025).

Assay [1] deals with T1, HiBit-BRG1 fusion protein (Homo sapiens, UniProt P51532).
T1 construct: expressed in transfected cells
In words: HiBiT-BRG1 cell-based degradation assay (Nano-Glo HiBiT lytic detection, 24 h). The settings on record: HeLa cell line expressing HiBit-BRG1 and LgBit; for Dmax: read-out: BRG1 HiBit Degradation Maximum (%); for DC50: read-out: BRMG1 HiBit Degradation IC50. In outline:
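HeLa cells stably expressing HiBiT-BRG1 and LgBiT, 5000 per well, compound-treated 24 h, equilibrated 15 min at room temperature, then lysed with LgBiT-containing Nano-Glo HiBiT lytic reagent and luminescence read. % degradation normalised between DMSO (high control) and 2 μM reference BRM/BRG1 degrader (low control).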
(In general: HiBiT is a short tag that completes a luciferase, so light tracks the accessible tagged protein.)

A further assay addresses T2, HiBit-BRM fusion protein (Homo sapiens, UniProt P51531).
T2 construct: expressed in transfected cells
In words: HiBiT-BRM cell-based degradation assay (Nano-Glo HiBiT lytic detection, 24 h). To be noted: HeLa cell line expressing HiBiT-BRM; for DC50: read-out: BRM HiBit Degradation IC50. In outline:
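Stable HeLa HiBiT-BRM cells treated 24 h with compounds (10-point 3-fold dilutions, 30 μM final top dose, duplicate). HiBiT levels read by Nano-Glo lytic luminescence; % degradation normalised to DMSO (high control) and 2 μM reference BRM/BRG1 degrader (low control).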

Where only a bound is given, the exact number is not on record here.

T1 sequence (P51532 whole entry, the tested form may be a part): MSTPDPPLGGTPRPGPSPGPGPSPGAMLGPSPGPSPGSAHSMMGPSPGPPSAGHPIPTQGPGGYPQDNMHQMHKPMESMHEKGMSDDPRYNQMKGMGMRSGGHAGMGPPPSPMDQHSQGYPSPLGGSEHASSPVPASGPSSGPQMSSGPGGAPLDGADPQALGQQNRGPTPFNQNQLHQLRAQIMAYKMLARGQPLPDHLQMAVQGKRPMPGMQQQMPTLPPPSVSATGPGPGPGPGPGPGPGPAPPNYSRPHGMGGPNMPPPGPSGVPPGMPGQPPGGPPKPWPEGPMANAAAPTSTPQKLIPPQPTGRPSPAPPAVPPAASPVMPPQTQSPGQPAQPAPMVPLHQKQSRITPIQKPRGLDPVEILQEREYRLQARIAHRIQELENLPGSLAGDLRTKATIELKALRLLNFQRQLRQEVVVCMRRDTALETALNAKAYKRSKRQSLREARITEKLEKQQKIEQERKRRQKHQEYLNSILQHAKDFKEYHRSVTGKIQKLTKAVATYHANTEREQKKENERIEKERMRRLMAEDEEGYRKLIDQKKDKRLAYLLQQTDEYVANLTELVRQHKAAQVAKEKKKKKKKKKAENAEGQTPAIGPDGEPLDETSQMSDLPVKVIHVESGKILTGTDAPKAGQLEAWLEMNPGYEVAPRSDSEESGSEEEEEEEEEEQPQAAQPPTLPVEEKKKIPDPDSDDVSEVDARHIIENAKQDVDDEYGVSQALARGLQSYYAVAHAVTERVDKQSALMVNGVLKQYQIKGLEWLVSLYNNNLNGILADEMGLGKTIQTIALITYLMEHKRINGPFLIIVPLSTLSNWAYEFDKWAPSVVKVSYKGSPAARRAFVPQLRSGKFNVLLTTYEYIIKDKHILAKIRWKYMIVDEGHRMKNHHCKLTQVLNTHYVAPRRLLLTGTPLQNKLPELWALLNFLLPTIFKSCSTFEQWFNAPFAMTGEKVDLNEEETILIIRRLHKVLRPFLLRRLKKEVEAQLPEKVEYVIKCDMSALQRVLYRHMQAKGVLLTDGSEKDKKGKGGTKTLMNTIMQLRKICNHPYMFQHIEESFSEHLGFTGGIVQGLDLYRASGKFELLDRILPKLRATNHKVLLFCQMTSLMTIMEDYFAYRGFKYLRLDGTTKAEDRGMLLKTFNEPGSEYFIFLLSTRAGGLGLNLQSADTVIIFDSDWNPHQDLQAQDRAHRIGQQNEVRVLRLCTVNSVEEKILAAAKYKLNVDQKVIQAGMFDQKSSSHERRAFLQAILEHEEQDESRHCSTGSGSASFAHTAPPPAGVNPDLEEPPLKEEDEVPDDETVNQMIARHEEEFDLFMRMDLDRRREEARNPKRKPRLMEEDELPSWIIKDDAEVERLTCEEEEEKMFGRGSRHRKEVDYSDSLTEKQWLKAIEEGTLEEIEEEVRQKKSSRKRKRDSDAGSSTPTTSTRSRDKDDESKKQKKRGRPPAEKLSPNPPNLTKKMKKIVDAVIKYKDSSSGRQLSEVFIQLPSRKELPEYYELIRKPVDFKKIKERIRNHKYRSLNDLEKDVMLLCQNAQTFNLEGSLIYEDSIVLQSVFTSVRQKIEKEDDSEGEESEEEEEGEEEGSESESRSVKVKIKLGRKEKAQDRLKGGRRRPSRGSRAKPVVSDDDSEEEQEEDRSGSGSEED
T2 sequence (P51531 whole entry, the tested form may be a part): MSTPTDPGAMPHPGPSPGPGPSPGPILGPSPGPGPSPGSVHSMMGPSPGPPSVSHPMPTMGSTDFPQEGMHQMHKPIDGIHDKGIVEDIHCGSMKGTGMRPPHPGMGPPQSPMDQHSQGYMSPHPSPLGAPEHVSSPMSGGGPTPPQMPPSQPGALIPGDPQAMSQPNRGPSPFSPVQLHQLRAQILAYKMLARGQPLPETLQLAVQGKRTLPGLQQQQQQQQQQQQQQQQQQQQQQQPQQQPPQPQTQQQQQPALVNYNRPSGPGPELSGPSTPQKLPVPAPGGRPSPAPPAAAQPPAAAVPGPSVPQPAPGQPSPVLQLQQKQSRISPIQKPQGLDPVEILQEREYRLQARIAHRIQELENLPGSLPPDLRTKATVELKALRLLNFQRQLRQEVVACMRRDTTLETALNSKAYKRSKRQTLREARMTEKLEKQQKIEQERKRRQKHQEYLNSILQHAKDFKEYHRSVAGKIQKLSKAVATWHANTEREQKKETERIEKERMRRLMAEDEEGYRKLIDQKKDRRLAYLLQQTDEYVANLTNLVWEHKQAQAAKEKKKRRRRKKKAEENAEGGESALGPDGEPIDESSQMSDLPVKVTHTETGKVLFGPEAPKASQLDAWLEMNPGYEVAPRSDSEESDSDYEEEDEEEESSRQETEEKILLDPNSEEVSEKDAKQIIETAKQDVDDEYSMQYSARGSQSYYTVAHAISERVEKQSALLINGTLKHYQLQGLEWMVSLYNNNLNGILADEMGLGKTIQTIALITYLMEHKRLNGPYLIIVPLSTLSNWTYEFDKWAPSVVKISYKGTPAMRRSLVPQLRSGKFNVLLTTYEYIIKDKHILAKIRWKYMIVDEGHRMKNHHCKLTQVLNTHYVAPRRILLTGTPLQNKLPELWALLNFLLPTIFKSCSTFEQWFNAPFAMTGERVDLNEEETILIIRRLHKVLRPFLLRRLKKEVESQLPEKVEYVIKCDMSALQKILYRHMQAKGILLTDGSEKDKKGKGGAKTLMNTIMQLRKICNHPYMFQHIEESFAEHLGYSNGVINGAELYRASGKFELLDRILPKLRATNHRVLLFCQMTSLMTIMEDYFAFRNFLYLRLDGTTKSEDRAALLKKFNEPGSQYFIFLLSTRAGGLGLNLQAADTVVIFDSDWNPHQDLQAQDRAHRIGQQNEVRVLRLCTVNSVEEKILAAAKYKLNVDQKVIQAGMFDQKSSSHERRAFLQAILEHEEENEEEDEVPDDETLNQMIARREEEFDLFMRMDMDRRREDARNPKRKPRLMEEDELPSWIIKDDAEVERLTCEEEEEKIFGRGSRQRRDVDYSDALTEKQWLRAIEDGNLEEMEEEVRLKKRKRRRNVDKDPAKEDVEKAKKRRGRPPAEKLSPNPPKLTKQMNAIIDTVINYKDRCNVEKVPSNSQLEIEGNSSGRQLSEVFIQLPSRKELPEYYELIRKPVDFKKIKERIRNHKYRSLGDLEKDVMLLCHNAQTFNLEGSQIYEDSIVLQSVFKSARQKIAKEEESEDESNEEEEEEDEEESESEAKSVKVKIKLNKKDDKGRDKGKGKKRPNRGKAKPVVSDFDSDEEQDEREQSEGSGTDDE

As for `CC(C)C(C(=O)N1C[C@H](O)C[C@H]1C(=O)N[C@@H](C)c1ccccc1)c1cc(N2CC3(CC(c4cc5nnc(-c6ccccc6O)cc5n4C4CCC4)C3)C2)no1` (stereo partly drawn) [Compound 49, (2S,4R)-1-[2-(3-{6-[5-cyclobutyl-3-(2-hydroxyphenyl)pyrrolo[3,2-c]pyridazin-6-yl]-2-azaspiro[3.3]heptan-2-yl}-1,2-oxazol-5-yl)-3-methylbutanoyl]-4-hydroxy-N-[(1S)-1-phenylethyl]pyrrolidine-2-carboxamide], the Dmax in assay [1] was < 50%. Also, on HiBit-BRM fusion protein, the “BRM HiBit Degradation Maximum (%)” value is recorded as “A (“A” indicates maximum degradation ≥75%)” and the DC50 is > 10 nM.

Regarding `Cc1ncsc1-c1ccc([C@H](C)NC(=O)[C@@H]2C[C@@H](O)CN2C(=O)[C@@H](c2cc(-c3cnc(N4CC[C@@H](c5cc6nnc(-c7ccccc7O)cc6n5C5(C)CC5)C4)nc3)no2)C(C)C)cc1` [Compound 103, (2S,4R)-4-hydroxy-1-((R)-2-(3-(2-((R)-3-(3-(2-hydroxyphenyl)-5-(1-methylcyclopropyl)-5H-pyrrolo[3,2-c]pyridazin-6-yl)pyrrolidin-1-yl)pyrimidin-5-yl)isoxazol-5-yl)-3-methylbutanoyl)-N-((S)-1-(4-(4-methylthiazol-5-yl)phenyl)ethyl)pyrrolidine-2-carboxamide], in assay [1], the Dmax is > 50% and the DC50 was < 10 nM. Further, on HiBit-BRM fusion protein, the “BRM HiBit Degradation Maximum (%)” value is reported as “A (“A” indicates maximum degradation ≥75%)” and the DC50 is < 10 nM.

With `Cc1ncsc1-c1ccc([C@H](C)NC(=O)[C@@H]2C[C@@H](O)CN2C(=O)[C@@H](c2cc(OCCN3CC(c4cc5nnc(-c6ccccc6O)cc5[nH]4)C3)no2)C(C)C)cc1` [Compound 1, (2S,4R)-4-hydroxy-1-[(2R)-2-[3-(2-{3-[3-(2-hydroxyphenyl)-5H-pyrrolo[3,2-c]pyridazin-6-yl]azetidin-1-yl}ethoxy)-1,2-oxazol-5-yl]-3-methylbutanoyl]-N-[(1S)-1-[4-(4-methyl-1,3-thiazol-5-yl)phenyl]ethyl]pyrrolidine-2-carboxamide], in assay [1], the Dmax is > 75% and the DC50 was > 100 nM. Also, at HiBit-BRM fusion protein, the “BRM HiBit Degradation Maximum (%)” value is listed as “A (“A” indicates maximum degradation ≥75%)” and the DC50 is > 10 nM.

Turning to `Cc1ncsc1-c1ccc([C@H](C)NC(=O)[C@@H]2C[C@@H](O)CN2C(=O)[C@@H](c2cc(N3CCC(CN4CC(c5cc6nnc(-c7ccccc7O)cc6n5C)C4)CC3)no2)C(C)C)cc1` [Compound 9, (2S,4R)-4-hydroxy-1-((R)-2-(3-(4-((3-(3-(2-hydroxyphenyl)-5-methyl-5H-pyrrolo[3,2-c]pyridazin-6-yl)azetidin-1-yl)methyl)piperidin-1-yl)isoxazol-5-yl)-3-methylbutanoyl)-N-((S)-1-(4-(4-methylthiazol-5-yl)phenyl)ethyl)pyrrolidine-2-carboxamide], the Dmax in assay [1] was < 50%. Further, at HiBit-BRM fusion protein, the “BRM HiBit Degradation Maximum (%)” value is reported as “A (“A” indicates maximum degradation ≥75%)” and the DC50 was > 10 nM.

As for `Cc1ncsc1-c1ccc([C@H](C)NC(=O)[C@@H]2C[C@@H](O)CN2C(=O)[C@@H](c2cc(OCCN3C[C@@H]4[C@H](C3)[C@H]4n3c(C)cc4nnc(-c5ccccc5O)cc43)no2)C(C)C)cc1` [Compound 33, (2S,4R)-4-hydroxy-1-[(2R)-2-(3-{2-[(1R,5S,6S)-6-[3-(2-hydroxyphenyl)-6-methylpyrrolo[3,2-c]pyridazin-5-yl]-3-azabicyclo[3.1.0]hexan-3-yl]ethoxy}-1,2-oxazol-5-yl)-3-methylbutanoyl]-N-[(1S)-1-[4-(4-methyl-1,3-thiazol-5-yl)phenyl]ethyl]pyrrolidine-2-carboxamide], in assay [1], the Dmax is < 50%. In addition, on HiBit-BRM fusion protein, the “BRM HiBit Degradation Maximum (%)” value is listed as “C (“C” indicates maximum degradation <50%)”.

As for `Cc1ncsc1-c1ccc([C@H](C)NC(=O)[C@@H]2C[C@@H](O)CN2C(=O)[C@H](c2cc(-c3cnc(N4CCC(c5cc6nnc(-c7ccccc7O)cc6[nH]5)CC4)nc3)no2)C(C)C)cc1` [Compound 19, (2S,4R)-4-hydroxy-1-[(2S)-2-[3-(2-{4-[3-(2-hydroxyphenyl)-5H-pyrrolo[3,2-c]pyridazin-6-yl]piperidin-1-yl}pyrimidin-5-yl)-1,2-oxazol-5-yl]-3-methylbutanoyl]-N-[(1S)-1-[4-(4-methyl-1,3-thiazol-5-yl)phenyl]ethyl]pyrrolidine-2-carboxamide], in assay [1], the Dmax was < 50%. Further, at HiBit-BRM fusion protein, the “BRM HiBit Degradation Maximum (%)” value is recorded as “B (“B” indicates maximum degradation ≥50%)” and the DC50 was > 10 nM.

For the compound `Cc1ncsc1-c1ccc(CNC(=O)[C@@H]2C[C@@H](O)CN2C(=O)[C@@H](c2cc(-c3cnc(N4CC[C@@H](c5cc6nnc(-c7ccccc7O)cc6n5C5CC5)C4)nc3)no2)C(C)C)cc1` [Compound 89, (2S,4R)-1-((R)-2-(3-(2-((R)-3-(5-cyclopropyl-3-(2-hydroxyphenyl)-5H-pyrrolo[3,2-c]pyridazin-6-yl)pyrrolidin-1-yl)pyrimidin-5-yl)isoxazol-5-yl)-3-methylbutanoyl)-4-hydroxy-N-(4-(4-methylthiazol-5-yl)benzyl)pyrrolidine-2-carboxamide], in assay [1], the Dmax was > 50% and the DC50 was > 10 nM. For the same compound, at HiBit-BRM fusion protein, the “BRM HiBit Degradation Maximum (%)” value is “A (“A” indicates maximum degradation ≥75%)” and the DC50 is > 10 nM.

Consider `Cc1ncsc1-c1ccc([C@H](C)NC(=O)[C@@H]2C[C@@H](O)CN2C(=O)[C@@H](c2cc(N3CC[C@H](c4cc5nnc(-c6ccccc6O)cc5n4C4CCC4)C3)no2)C(C)C)cc1` [Compound 79, (2S,4R)-1-((R)-2-(3-((S)-3-(5-cyclobutyl-3-(2-hydroxyphenyl)-5H-pyrrolo[3,2-c]pyridazin-6-yl)pyrrolidin-1-yl)isoxazol-5-yl)-3-methylbutanoyl)-4-hydroxy-N-((S)-1-(4-(4-methylthiazol-5-yl)phenyl)ethyl)pyrrolidine-2-carboxamide], for which, in assay [1], the Dmax was < 50%. In addition, on HiBit-BRM fusion protein, the “BRM HiBit Degradation Maximum (%)” value is “A (“A” indicates maximum degradation ≥75%)” and the DC50 is > 10 nM.

As for `Cc1ncsc1-c1ccc([C@H](C)NC(=O)[C@@H]2C[C@@H](O)CN2C(=O)[C@@H](c2cc(N3CC4(CC(c5cc6nnc(-c7ccccc7O)cc6n5C5(C)CC5)C4)C3)no2)C(C)C)cc1` [Compound 66, (2S,4R)-4-hydroxy-1-((R)-2-(3-(6-(3-(2-hydroxyphenyl)-5-(1-methylcyclopropyl)-5H-pyrrolo[3,2-c]pyridazin-6-yl)-2-azaspiro[3.3]heptan-2-yl)isoxazol-5-yl)-3-methylbutanoyl)-N-((S)-1-(4-(4-methylthiazol-5-yl)phenyl)ethyl)pyrrolidine-2-carboxamide], in assay [1], the Dmax is > 50% and the DC50 is > 10 nM. At HiBit-BRM fusion protein, the “BRM HiBit Degradation Maximum (%)” value is on record as “A (“A” indicates maximum degradation ≥75%)” and the DC50 was < 10 nM.

Consider `CC(C)[C@@H](C(=O)N1C[C@H](O)C[C@H]1C(=O)N[C@@H](C)c1ccc(F)cc1)c1cc(N2CC3(CC(c4cc5nnc(-c6ccccc6O)cc5n4C4CCC4)C3)C2)no1` [Compound 63, (2S,4R)-1-((R)-2-(3-(6-(5-cyclobutyl-3-(2-hydroxyphenyl)-5H-pyrrolo[3,2-c]pyridazin-6-yl)-2-azaspiro[3.3]heptan-2-yl)isoxazol-5-yl)-3-methylbutanoyl)-N-((S)-1-(4-fluorophenyl)ethyl)-4-hydroxypyrrolidine-2-carboxamide], for which the Dmax in assay [1] was < 50%. Also, at HiBit-BRM fusion protein, the “BRM HiBit Degradation Maximum (%)” value is “A (“A” indicates maximum degradation ≥75%)” and the DC50 is > 10 nM.

Take `Cc1ncsc1-c1ccc([C@H](C)NC(=O)[C@@H]2C[C@@H](O)CN2C(=O)[C@@H](c2cc(-c3cnc(N4CC[C@H](c5cc6nnc(-c7ccccc7O)cc6n5CC5CC5)C4)nc3)no2)C(C)C)cc1` [Compound 115, (2S,4R)-1-((R)-2-(3-(2-((S)-3-(5-(cyclopropylmethyl)-3-(2-hydroxyphenyl)-5H-pyrrolo[3,2-c]pyridazin-6-yl)pyrrolidin-1-yl)pyrimidin-5-yl)isoxazol-5-yl)-3-methylbutanoyl)-4-hydroxy-N-((S)-1-(4-(4-methylthiazol-5-yl)phenyl)ethyl)pyrrolidine-2-carboxamide]: in assay [1], the Dmax was > 50% and the DC50 is > 10 nM. In addition, on HiBit-BRM fusion protein, the “BRM HiBit Degradation Maximum (%)” value is “A (“A” indicates maximum degradation ≥75%)” and the DC50 is < 10 nM.

Turning to `Cc1ncsc1-c1ccc([C@H](C)NC(=O)[C@@H]2C[C@@H](O)CN2C(=O)[C@@H](c2cc(-c3cnc(N4CC[C@H](c5cc6nnc(-c7cccc(F)c7O)cc6n5C5CC5)C4)nc3)no2)C(C)C)cc1` [Compound 109, (2S,4R)-1-((R)-2-(3-(2-((S)-3-(5-cyclopropyl-3-(3-fluoro-2-hydroxyphenyl)-5H-pyrrolo[3,2-c]pyridazin-6-yl)pyrrolidin-1-yl)pyrimidin-5-yl)isoxazol-5-yl)-3-methylbutanoyl)-4-hydroxy-N-((S)-1-(4-(4-methylthiazol-5-yl)phenyl)ethyl)pyrrolidine-2-carboxamide], in assay [1], the Dmax is < 50%. Also, on HiBit-BRM fusion protein, the “BRM HiBit Degradation Maximum (%)” value was “A (“A” indicates maximum degradation ≥75%)” and the DC50 was < 10 nM.
